Data: ChEMBL document CHEMBL4334496, “Identification of a Unique Resorcylic Acid Lactone Derivative That Targets Both Lymphangiogenesis and Angiogenesis” (J Med Chem, 2019)
The source made the active and inactive calls. The rule behind the calls is not given here.

Experiments:
in vitro = details: mouse, BA/F3 cells
Description: Growth inhibition of mouse BA/F3 cells assessed as inhibition of cell growth incubated for 72 hrs by Cell-titer-Glo assay

[1] = target: T1, Vascular endothelial growth factor receptor 3 (Homo sapiens, UniProt P35916)
Description: Inhibition of human VEGFR3 using poly[Glu:Tyr] (4:1) substrate and [gamma-33P]-ATP by radiometric biochemical kinase assay

[2] = target: T2, Vascular endothelial growth factor receptor 2 (Homo sapiens, UniProt P35968)
Description: Inhibition of human VEGFR2 using poly[Glu:Tyr] (4:1) substrate and [gamma-33P]-ATP by radiometric biochemical kinase assay

[3] = target: T2, Vascular endothelial growth factor receptor 2; remark: listed apart in the source
Description: Inhibition of TEL-fused VEGFR2 (unknown origin) expressed in mouse BA/F3 cells assessed as inhibition of cell growth incubated for 72 hrs by Cell-titer-Glo assay

[4] = target: T1, Vascular endothelial growth factor receptor 3; remark: listed apart in the source
Description: Inhibition of TEL-fused VEGFR3 (unknown origin) expressed in mouse BA/F3 cells assessed as inhibition of cell growth incubated for 72 hrs by Cell-titer-Glo assay

[5] = target: Receptor-type tyrosine-protein kinase FLT3 (Homo sapiens) (UniProt P36888)
Description: Inhibition of TEL-fused FLT3 (unknown origin) expressed in mouse BA/F3 cells assessed as inhibition of cell growth incubated for 72 hrs by Cell-titer-Glo assay

[6] = target: T3, Receptor-type tyrosine-protein kinase FLT3 (Homo sapiens, UniProt P36888)
T3 sequence (P36888 whole entry): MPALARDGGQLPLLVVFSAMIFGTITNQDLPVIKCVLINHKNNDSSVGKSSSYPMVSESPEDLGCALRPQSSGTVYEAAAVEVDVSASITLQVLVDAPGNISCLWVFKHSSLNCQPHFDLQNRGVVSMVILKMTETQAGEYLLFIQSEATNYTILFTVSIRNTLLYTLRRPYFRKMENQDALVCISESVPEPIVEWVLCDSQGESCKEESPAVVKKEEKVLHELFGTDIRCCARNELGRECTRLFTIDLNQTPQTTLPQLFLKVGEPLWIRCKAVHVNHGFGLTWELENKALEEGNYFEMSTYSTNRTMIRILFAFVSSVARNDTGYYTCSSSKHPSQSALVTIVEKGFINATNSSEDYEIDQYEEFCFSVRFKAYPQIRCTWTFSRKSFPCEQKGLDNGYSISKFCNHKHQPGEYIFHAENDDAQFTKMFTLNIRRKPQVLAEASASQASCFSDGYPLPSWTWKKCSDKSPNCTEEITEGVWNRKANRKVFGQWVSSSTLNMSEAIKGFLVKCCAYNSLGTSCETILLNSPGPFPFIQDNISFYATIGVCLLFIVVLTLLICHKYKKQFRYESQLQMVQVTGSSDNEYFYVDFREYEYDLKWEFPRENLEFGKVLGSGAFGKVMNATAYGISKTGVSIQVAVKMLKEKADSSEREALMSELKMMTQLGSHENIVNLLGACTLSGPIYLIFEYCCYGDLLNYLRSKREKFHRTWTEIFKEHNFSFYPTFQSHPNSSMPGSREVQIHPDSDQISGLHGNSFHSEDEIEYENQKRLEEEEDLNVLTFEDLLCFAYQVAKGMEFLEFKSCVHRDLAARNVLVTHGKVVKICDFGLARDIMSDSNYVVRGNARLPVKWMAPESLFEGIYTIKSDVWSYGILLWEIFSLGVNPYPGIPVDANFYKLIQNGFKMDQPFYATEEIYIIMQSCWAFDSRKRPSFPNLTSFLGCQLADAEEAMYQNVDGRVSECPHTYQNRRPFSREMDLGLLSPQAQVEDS

[7] = target: T4, Vascular endothelial growth factor receptor 1 (Homo sapiens, UniProt P17948); assay: Inhibition of human VEGFR1 using poly[Glu:Tyr] (4:1) substrate and [gamma-33P]-ATP by radiometric biochemical kinase assay
Mus musculus [8] = assay: Anti-angiogenesis activity in C57BL/6 mouse assessed as suppression of suture-induced corneal angiogenesis at 200 nM administered topically every 12 hrs for 7 days by immunohistochemical analysis; type: functional, organism-based
MV4-11 [9] = assay: Induction of apoptosis in human MV4-11 cells assessed as induction of PARP cleavage at 0.1 to 1 uM incubated for 24 hrs by Western blot analysis; type: functional, cell-based
Mus musculus [10] = assay: Anti-lymphangiogenic activity in C57BL/6 mouse assessed as suppression of suture-induced corneal lymphangiogenesis at 200 nM administered topically every 12 hrs for 7 days by immunohistochemical analysis; type: functional, organism-based
HUVEC [11] = assay: Anti-angiogenesis activity in truncated-FOSB transfected HUVEC cells model of pseudomyogenic-hemangioendothelioma assessed as inhibition of cell proliferation; type: functional, cell-based; details: Homo sapiens
Homo sapiens [12] = species on record: Homo sapiens; assay: Anti-lymphangiogenic activity in HDLEC assessed as reduction in human A375 cells-induced lymphatic sprouting at 1 to 10 uM incubated for 4 days by Hoechst 33342 and phalloidin staining based microfluidic platform assay relative to control; type: functional, cell-based
[13] = target: Mast/stem cell growth factor receptor Kit (Homo sapiens, UniProt P10721); assay: Inhibition of c-Kit phosphorylation in human TF1 cells assessed as at 0.1 to 0.3 uM incubated for 2 hrs by Western blot analysis; type: cell-based
MOLM-14 [14] = assay: Induction of apoptosis in human MOLM14 cells assessed as induction of caspase-3 cleavage at 0.1 to 1 uM incubated for 24 hrs by Western blot analysis; type: functional, cell-based
MV4-11 [15] = assay: Induction of apoptosis in human MV4-11 cells at 0.1 uM incubated for 24 hrs by propidium iodide and annexin-V staining based flow cytometry; type: functional, cell-based
[16] = Toxicity in C57BL/6 mouse assessed as induction of clinically detectable corneal-epitheliopathy at 200 nM administered topically every 12 hrs for 7 days by immunohistochemical analysis; details: in vivo, topical_or_ocular, 0.2 µM
HUVEC [17] = assay: Anti-angiogenesis activity in truncated-FOSB transfected HUVEC cells model of pseudomyogenic-hemangioendothelioma assessed as inhibition of tube formation; type: functional, cell-based; details: Homo sapiens
HUVEC [18] = assay: Anti-angiogenesis activity in HUVEC assessed as inhibition of VEGF-A-induced cell migration at 0.1 uM incubated for 12 hrs by wound healing assay; type: functional, cell-based; details: Homo sapiens
MOLM-14 [19] = assay: Induction of apoptosis in human MOLM14 cells assessed as induction of PARP cleavage at 0.1 to 1 uM incubated for 24 hrs by Western blot analysis; type: functional, cell-based
MV4-11 [20] = assay: Induction of apoptosis in human MV4-11 cells assessed as induction of caspase-3 cleavage at 0.1 to 1 uM incubated for 24 hrs by Western blot analysis; type: functional, cell-based
HUVEC [21] = assay: Anti-angiogenesis activity in HUVEC assessed as inhibition of VEGF-A-induced tube formation at 0.1 uM incubated for 6 hrs by tube formation assay; type: functional, cell-based; details: Homo sapiens
Homo sapiens [22] = species on record: Homo sapiens; assay: Anti-lymphangiogenic activity in HDLEC assessed as reduction in human MIAPaCa-2 cells-induced lymphatic sprouting at 1 to 10 uM incubated for 4 days by Hoechst 33342 and phalloidin staining based microfluidic platform assay relative to control; type: functional, cell-based
[23] = target: T4, Vascular endothelial growth factor receptor 1; assay: Inhibition of human VEGFR1 assessed as enzyme residual activity at 10 uM using poly[Glu:Tyr] (4:1) substrate and [gamma-33P]-ATP by radiometric biochemical kinase assay relative to control
MOLM-14 [24] = assay: Induction of apoptosis in human MOLM14 cells at 0.1 uM incubated for 24 hrs by propidium iodide and annexin-V staining based flow cytometry; type: functional, cell-based
[25] = target: c-Kit (Mast/stem cell growth factor receptor Kit) (Homo sapiens, UniProt P10721); assay: Inhibition of human c-Kit assessed as enzyme residual activity at 10 uM using poly[Glu:Tyr] (4:1) substrate and [gamma-33P]-ATP by radiometric biochemical kinase assay relative to control; details: probe poly[Glu:Tyr] (4:1), read-out: Activity
HUVEC [26] = assay: Anti-angiogenesis activity in truncated-FOSB transfected HUVEC cells model of pseudomyogenic-hemangioendothelioma assessed as inhibition of tube formation up to 5 uM; type: functional, cell-based; details: Homo sapiens
Homo sapiens [27] = species on record: Homo sapiens; assay: Anti-lymphangiogenic activity in HDLEC assessed as reduction in growth factor cocktail-induced lymphatic sprouting at 10 uM incubated for 4 days by Hoechst 33342 and phalloidin staining based microfluidic platform assay relative to control; type: functional

T2 sequence (P35968 whole entry): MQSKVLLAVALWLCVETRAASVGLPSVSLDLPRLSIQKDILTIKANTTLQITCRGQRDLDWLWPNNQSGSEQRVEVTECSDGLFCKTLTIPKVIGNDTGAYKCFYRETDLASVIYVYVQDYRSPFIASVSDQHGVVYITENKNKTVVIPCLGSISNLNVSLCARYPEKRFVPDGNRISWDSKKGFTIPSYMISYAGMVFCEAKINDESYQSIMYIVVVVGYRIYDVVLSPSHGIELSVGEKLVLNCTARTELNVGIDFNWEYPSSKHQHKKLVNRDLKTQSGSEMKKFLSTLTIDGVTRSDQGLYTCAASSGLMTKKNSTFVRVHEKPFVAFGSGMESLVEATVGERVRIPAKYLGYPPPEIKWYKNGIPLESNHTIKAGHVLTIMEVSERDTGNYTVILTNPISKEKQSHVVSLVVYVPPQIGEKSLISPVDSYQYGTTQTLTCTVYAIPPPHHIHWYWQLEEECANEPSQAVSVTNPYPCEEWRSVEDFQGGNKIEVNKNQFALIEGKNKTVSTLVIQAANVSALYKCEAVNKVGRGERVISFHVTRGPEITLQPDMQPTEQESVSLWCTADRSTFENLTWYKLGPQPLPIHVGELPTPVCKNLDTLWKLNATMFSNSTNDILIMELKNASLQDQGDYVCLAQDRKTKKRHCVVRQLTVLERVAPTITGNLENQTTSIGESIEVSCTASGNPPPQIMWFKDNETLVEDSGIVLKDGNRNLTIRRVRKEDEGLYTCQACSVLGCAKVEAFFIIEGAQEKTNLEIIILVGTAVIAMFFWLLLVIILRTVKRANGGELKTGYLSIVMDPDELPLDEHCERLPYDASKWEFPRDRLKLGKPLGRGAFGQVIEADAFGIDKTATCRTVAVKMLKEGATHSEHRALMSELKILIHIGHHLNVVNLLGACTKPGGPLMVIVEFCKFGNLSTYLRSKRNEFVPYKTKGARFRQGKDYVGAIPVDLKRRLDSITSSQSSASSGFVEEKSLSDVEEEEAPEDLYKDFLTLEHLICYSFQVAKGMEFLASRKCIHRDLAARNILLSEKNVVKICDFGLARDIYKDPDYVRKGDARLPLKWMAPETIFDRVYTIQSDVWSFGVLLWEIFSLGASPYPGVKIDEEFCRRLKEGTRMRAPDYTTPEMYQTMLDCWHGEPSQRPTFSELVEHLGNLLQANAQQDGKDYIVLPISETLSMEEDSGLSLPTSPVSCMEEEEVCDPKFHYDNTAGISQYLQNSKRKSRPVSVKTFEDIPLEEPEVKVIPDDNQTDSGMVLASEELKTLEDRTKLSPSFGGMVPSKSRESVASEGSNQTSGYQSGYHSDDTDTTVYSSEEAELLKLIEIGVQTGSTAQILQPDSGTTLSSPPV
T1 sequence (P35916 whole entry): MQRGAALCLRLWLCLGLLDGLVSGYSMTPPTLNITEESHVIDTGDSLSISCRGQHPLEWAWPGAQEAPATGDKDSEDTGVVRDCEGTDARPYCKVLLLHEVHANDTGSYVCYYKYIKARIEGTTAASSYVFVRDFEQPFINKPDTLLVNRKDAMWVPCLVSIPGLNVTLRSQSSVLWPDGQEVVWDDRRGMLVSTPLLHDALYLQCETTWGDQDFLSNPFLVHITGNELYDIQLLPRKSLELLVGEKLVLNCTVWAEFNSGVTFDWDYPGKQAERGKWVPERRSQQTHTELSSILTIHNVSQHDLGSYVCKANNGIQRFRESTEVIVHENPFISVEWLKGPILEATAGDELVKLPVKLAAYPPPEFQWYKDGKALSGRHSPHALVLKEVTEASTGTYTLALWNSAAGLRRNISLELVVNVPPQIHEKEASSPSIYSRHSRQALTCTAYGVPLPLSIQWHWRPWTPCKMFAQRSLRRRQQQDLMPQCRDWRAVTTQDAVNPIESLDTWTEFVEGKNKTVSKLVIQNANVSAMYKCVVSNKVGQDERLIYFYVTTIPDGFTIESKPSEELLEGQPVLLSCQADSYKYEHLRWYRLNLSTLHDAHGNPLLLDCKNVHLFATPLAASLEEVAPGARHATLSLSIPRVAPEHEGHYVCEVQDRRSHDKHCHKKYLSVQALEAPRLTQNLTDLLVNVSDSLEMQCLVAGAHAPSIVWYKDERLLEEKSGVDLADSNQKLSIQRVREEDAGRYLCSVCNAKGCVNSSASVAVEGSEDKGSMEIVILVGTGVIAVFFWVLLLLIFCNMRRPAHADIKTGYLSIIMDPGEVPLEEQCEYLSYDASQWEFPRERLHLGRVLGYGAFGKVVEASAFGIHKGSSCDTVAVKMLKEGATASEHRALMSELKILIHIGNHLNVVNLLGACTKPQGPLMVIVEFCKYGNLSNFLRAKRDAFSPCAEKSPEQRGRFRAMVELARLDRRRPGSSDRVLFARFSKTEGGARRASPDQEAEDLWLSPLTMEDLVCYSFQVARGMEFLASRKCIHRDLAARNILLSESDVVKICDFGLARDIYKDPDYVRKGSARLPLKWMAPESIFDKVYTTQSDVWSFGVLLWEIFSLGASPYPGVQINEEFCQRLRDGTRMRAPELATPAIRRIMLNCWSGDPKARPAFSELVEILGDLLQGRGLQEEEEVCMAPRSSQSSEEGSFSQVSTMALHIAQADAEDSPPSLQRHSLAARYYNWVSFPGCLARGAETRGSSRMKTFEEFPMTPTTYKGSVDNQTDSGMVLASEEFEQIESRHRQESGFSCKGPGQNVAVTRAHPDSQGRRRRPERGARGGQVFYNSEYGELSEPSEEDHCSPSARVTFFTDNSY
T4 sequence (P17948 whole entry): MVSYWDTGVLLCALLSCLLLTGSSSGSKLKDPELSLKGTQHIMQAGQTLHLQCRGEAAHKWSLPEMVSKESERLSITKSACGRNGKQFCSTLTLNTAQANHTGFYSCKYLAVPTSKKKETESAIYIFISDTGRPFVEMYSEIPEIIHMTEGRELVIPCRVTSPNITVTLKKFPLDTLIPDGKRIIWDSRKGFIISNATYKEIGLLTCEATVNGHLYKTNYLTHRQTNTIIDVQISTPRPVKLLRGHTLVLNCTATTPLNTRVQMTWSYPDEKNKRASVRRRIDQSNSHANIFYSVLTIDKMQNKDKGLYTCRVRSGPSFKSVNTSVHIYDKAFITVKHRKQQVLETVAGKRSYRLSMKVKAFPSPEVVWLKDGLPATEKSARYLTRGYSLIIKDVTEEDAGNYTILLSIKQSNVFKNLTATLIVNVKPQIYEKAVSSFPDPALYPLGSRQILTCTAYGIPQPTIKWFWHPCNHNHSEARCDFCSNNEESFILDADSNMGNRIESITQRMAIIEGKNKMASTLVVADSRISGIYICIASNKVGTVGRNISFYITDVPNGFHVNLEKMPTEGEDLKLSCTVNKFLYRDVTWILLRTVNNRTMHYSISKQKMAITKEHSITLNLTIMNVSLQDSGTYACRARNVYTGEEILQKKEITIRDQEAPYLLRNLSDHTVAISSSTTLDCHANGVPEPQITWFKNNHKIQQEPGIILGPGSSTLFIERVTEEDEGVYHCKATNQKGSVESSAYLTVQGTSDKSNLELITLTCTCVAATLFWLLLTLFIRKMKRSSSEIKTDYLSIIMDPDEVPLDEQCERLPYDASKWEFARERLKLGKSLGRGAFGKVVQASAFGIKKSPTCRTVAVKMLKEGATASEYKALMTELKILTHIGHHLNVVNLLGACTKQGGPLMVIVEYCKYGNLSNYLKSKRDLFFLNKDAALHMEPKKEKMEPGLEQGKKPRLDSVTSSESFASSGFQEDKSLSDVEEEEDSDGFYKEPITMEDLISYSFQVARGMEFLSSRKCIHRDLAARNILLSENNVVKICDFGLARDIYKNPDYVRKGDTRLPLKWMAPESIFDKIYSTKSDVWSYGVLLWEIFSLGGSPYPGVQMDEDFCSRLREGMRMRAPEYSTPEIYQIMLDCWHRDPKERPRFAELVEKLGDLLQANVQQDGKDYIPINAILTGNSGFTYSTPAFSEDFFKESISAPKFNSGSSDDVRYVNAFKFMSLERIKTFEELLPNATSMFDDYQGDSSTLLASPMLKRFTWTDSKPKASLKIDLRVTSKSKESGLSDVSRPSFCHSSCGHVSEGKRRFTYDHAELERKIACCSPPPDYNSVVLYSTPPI
c-Kit (Mast/stem cell growth factor receptor Kit), sequence (P10721 whole entry, the tested form may be a part): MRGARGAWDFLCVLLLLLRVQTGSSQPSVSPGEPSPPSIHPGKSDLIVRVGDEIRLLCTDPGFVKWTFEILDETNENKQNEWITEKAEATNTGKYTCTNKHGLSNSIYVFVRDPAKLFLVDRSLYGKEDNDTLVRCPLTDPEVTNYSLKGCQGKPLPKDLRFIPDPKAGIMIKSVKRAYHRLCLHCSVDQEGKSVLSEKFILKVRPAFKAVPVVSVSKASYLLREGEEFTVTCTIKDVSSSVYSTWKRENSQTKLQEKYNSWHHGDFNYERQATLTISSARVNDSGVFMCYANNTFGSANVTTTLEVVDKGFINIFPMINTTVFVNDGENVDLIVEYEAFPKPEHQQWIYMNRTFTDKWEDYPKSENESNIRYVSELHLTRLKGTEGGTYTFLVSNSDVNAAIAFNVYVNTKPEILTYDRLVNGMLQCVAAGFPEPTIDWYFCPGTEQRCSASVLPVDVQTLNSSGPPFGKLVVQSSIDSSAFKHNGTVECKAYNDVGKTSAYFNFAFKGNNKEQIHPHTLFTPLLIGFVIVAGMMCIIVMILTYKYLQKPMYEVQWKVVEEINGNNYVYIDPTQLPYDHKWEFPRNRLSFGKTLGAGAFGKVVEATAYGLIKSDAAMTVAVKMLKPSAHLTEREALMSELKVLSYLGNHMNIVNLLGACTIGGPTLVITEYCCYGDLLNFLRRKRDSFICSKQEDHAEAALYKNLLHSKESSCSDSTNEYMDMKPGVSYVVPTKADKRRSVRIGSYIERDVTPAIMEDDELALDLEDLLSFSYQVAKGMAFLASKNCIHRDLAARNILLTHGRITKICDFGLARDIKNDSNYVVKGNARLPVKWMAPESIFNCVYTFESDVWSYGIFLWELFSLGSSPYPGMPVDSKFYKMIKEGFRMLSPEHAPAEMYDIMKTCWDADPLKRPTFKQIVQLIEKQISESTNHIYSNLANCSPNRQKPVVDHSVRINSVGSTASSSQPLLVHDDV
Mast/stem cell growth factor receptor Kit, sequence (P10721 whole entry): as the sequence (P10721 whole entry, the tested form may be a part) above

For `COc1cc(O)c2c(c1)-c1cccc(c1)[C@H](O)[C@H](O)C(=O)/C=C\C[C@H](C)OC2=O`, the GI50 at 72 h (in vitro) was 12 µM.

Work on `C=C1/C=C\C[C@H](C)OC(=O)c2c(O)cc(OC)cc2-c2cccc(c2)[C@@H](O)[C@@H]1O` yielded a GI50 at 72 h (in vitro) greater than 25 µM, an IC50 [1] greater than 10 µM and an IC50 [2] greater than 10 µM. It also gave a GI50 [3] greater than 25 µM and a GI50 [4] greater than 25 µM.

Work on `COc1cc(O)c2c(c1)-c1cccc(c1)[C@H](O)[C@H](O)C(=O)CCC[C@H](C)OC2=O` yielded a GI50 at 72 h (in vitro) greater than 25 µM.

`COc1cc(O)c2c(c1)-c1cccc(c1)[C@@H](O)[C@H](O)C(=O)CCC[C@H](C)OC2=O` gave a GI50 at 72 h (in vitro) greater than 25 µM.

For `COc1cc(O)c2c(c1)CCC[C@H](O)[C@H](O)C(=O)/C=C\C[C@H](C)OC2=O`, the GI50 at 72 h (in vitro) was 1.7 µM, the IC50 [1] was 0.00073 µM and the IC50 [2] was 0.0029 µM. For the same molecule, the GI50 [3] was 0.14 µM, the GI50 [5] was 0.27 µM and the IC50 [6] was 0.0018 µM. For the same molecule, the GI50 [4] was 0.05 µM.

In the case of `COc1cc(O)c2c(c1)-c1cccc(c1)[C@H](O)[C@@H](O)C(=O)/C=C\C[C@H](C)OC2=O`, the GI50 at 72 h (in vitro) is reported as 17 µM.

Work on `COc1cc(O)c2c(c1)-c1cccc(c1)CCC(=O)/C=C\C[C@H](C)OC2=O` yielded a GI50 at 72 h (in vitro) greater than 25 µM.

Work on `COc1cc(O)c2c(c1)-c1cccc(c1)[C@@H](O)[C@H](O)[C@@H](N)/C=C\C[C@H](C)OC2=O` yielded a GI50 at 72 h (in vitro) greater than 25 µM, an IC50 [1] greater than 10 µM and an IC50 [2] greater than 10 µM. For the same molecule, the GI50 [3] was greater than 25 µM, the GI50 [5] was greater than 25 µM and the GI50 [4] was greater than 25 µM.

With `COc1cc(O)c2c(c1)-c1cccc(c1)[C@@H](O)[C@H](O)C(=O)C/C=C/[C@H](C)OC2=O` the GI50 at 72 h (in vitro) was 11 µM.

With `COc1cc(O)c2c(c1)-c1cccc(c1)[C@@H](O)[C@H](O)C(=O)/C=C\C[C@H](C)OC2=O` the GI50 at 72 h (in vitro) was 10 µM, the IC50 [7] was 0.845 µM and the Activity (Mus musculus [8]) was “Active”. The Activity (MV4-11 [9]) was “Active”, the Activity (Mus musculus [10]) was “Active” and the Activity (HUVEC [11]) was “Dose-dependent effect”. The Activity (Homo sapiens [12]) was “Active”, the “inhibition (INH)” value [13] was “Not Active” and the Activity (MOLM-14 [14]) was “Active”. The Activity (MV4-11 [15]) was “Active”, the Activity [16] was “Non-Toxic” and the Activity (HUVEC [17]) was “Dose-dependent effect”. For the same molecule, the inhibition (HUVEC [18]) was “Active”, the Activity (MOLM-14 [19]) was “Active” and the Activity (MV4-11 [20]) was “Active”. The inhibition (HUVEC [21]) was “Active”, the Activity (Homo sapiens [22]) was “Active” and the Activity [23] was 36.6%. The Activity (MOLM-14 [24]) was “Active” and the activity at 10 µM [25] was 82.2%.

Molecule `COc1cc(O)c2c(c1)-c1cccc(c1)[C@H](O)[C@@H](O)C(=O)CCC[C@H](C)OC2=O` has a GI50 at 72 h (in vitro) greater than 25 µM.

With `COc1cc(O)c2c(c1)-c1cccc(c1)[C@@H](O)[C@H](O)[C@H](O)/C=C\C[C@H](C)OC2=O` the GI50 at 72 h (in vitro) was greater than 25 µM.

For `CCn1c(N)c(C(=O)NC)c(=O)c2ccc(C#C[C@@](C)(O)COC)nc21`, the GI50 at 72 h (in vitro) was greater than 25 µM, the Activity (Mus musculus [10]) was “Active” and the Activity (HUVEC [26]) was “inactive”. The fold change (FC) (Homo sapiens [27]) was 2, the Activity [16] was “Non-Toxic” and the IC50 [1] was 0.0012 µM. For the same molecule, the inhibition (HUVEC [18]) was “inactive”, the IC50 [2] was 0.067 µM and the GI50 [3] was 4.6 µM. For the same molecule, the inhibition (HUVEC [21]) was “inactive”, the GI50 [5] was 18 µM and the IC50 [6] was 0.29 µM. The GI50 [4] was 0.059 µM.
